# Tests used:
# Assay in all cases: relative viability (nuclei count vs DMSO), 5 days (fraction); higher = more cells survive
# [1] = compound: Cc1nc(Nc2ncc(C(=O)Nc3c(C)cccc3Cl)s2)cc(N2CCN(CCO)CC2)n1 [Dasatinib] + C[C@]1(O)C[C@@H](c2nc(-c3ccc4ccc(-c5ccccc5)nc4c3)c3c(N)nccn32)C1 [Linsitinib] (partner 1 µM)
# Method in brief: (§1)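 For relative viability, nuclei counts in treated wells were divided by those in vehicle wells. Lung cancer cell lines had been pin-tool dosed in 1536-well plates the day after seeding and cultured for 5 days, then fixed and stained in one step (final 0.05% Triton X-100, 1% formaldehyde, 1 ug/ml Hoechst) and imaged at 4×. Doses were one drug alone or a fixed anchor-drug dose plus five library-drug doses (not always all listed) in √10 steps, and values are duplicate-plate medians.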
# [2] = compound: Cc1nc(Nc2ncc(C(=O)Nc3c(C)cccc3Cl)s2)cc(N2CCN(CCO)CC2)n1 [Dasatinib] + N=C(N)NC(=N)NCCc1ccccc1 [Phenformin] (partner 250 µM)
# Method in brief: as §1
# [3] = compound: Cc1nc(Nc2ncc(C(=O)Nc3c(C)cccc3Cl)s2)cc(N2CCN(CCO)CC2)n1 [Dasatinib] + CS(=O)(=O)CCNCc1ccc(-c2ccc3ncnc(Nc4ccc(OCc5cccc(F)c5)c(Cl)c4)c3c2)o1 [Lapatinib] (partner 2 µM)
# Method in brief: as §1
# [4] = compound: Cc1nc(Nc2ncc(C(=O)Nc3c(C)cccc3Cl)s2)cc(N2CCN(CCO)CC2)n1 [Dasatinib] + COc1cccc2cc(-c3nc([C@H]4CC[C@H](C(=O)O)CC4)n4ncnc(N)c34)[nH]c12 [OSI-027] (partner 0.5 µM)
# Method in brief: as §1
Cell Line,relative viability ([1]; first compound 0.005 µM),relative viability ([1]; first compound 0.01581 µM),relative viability ([1]; first compound 0.05 µM),relative viability ([1]; first compound 0.1581 µM),relative viability ([1]; first compound 0.5 µM),relative viability ([2]; first compound 0.005 µM),relative viability ([2]; first compound 0.01581 µM),relative viability ([2]; first compound 0.05 µM),relative viability ([2]; first compound 0.1581 µM),relative viability ([2]; first compound 0.5 µM),relative viability ([3]; first compound 0.005 µM),relative viability ([3]; first compound 0.01581 µM),relative viability ([3]; first compound 0.05 µM),relative viability ([3]; first compound 0.1581 µM),relative viability ([3]; first compound 0.5 µM),relative viability ([4]; first compound 0.005 µM),relative viability ([4]; first compound 0.01581 µM),relative viability ([4]; first compound 0.05 µM),relative viability ([4]; first compound 0.1581 µM),relative viability ([4]; first compound 0.5 µM)
NCI-H2023,0.439,0.384,0.426,0.329,0.188,0.355,0.331,0.291,0.224,0.173,0.584,0.703,0.742,0.758,0.64,0.418,0.326,0.248,0.26,0.211
EBC-1,0.787,0.805,0.782,0.589,0.467,,,,,,0.248,0.217,0.236,0.233,0.252,,,,,
NCI-H1666,0.806,0.595,0.788,0.464,0.288,0.517,0.26,0.548,0.498,0.451,0.582,0.482,0.522,0.447,0.224,0.915,0.843,0.849,0.733,0.486
NCI-H1975,0.86,0.713,0.851,0.286,0.243,0.362,0.347,0.348,0.257,0.188,0.779,0.701,0.595,0.419,0.23,0.608,0.589,0.556,0.32,0.201
NCI-H2170,,,,,,0.426,0.379,0.357,0.294,0.177,0.264,0.236,0.271,0.259,0.216,0.71,0.635,0.711,0.568,0.323
NCI-H1355,0.686,0.597,0.667,0.428,0.369,0.435,0.391,0.432,0.352,0.325,0.988,0.902,0.898,0.704,0.49,0.434,0.291,0.287,0.272,0.271
NCI-H1648,,,,,,,,,,,,,,,,0.264,0.274,0.306,0.268,0.24
A549,0.518,0.348,0.34,0.211,0.0589,0.207,0.165,0.175,0.137,0.0717,0.955,0.824,0.83,0.673,0.194,,,,,
SK-MES-1,1.11,1.08,0.937,0.412,0.219,0.721,0.681,0.669,0.361,0.171,0.467,0.482,0.399,0.315,0.258,0.738,0.57,0.409,0.21,0.14
EKVX,0.945,0.683,0.778,0.314,0.142,0.218,0.21,0.177,0.136,0.102,0.205,0.165,0.149,0.123,0.0913,0.66,0.508,0.546,0.355,0.123
RERF-LC-KJ,0.896,0.845,0.862,0.67,0.634,0.406,0.348,0.363,0.355,0.305,0.819,0.758,0.84,0.813,0.809,0.576,0.475,0.514,0.382,0.376
NCI-H1755,0.795,0.743,0.642,0.391,0.171,0.477,0.46,0.423,0.352,0.218,0.957,0.714,0.749,0.622,0.246,0.679,0.604,0.507,0.384,0.191
NCI-H661,0.43,0.329,0.31,0.236,0.215,0.266,0.222,0.249,0.226,0.243,0.295,0.29,0.276,0.318,0.234,0.686,0.604,0.586,0.522,0.402
LOU-NH91,0.961,0.847,0.715,0.549,0.412,0.734,0.678,0.566,0.489,0.288,0.673,0.592,0.571,0.503,0.414,0.705,0.604,0.595,0.526,0.344
LXF-289,1,0.974,0.831,0.202,0.131,0.543,0.512,0.414,0.34,0.0987,0.941,1.01,0.971,0.604,0.223,0.812,0.733,0.567,0.323,0.125
HCC-44,0.619,0.51,0.669,0.27,0.131,0.202,0.283,0.179,0.139,0.113,1.03,0.942,1.07,0.844,0.555,0.65,0.754,0.466,0.337,0.273
HARA,0.971,0.67,0.516,0.247,0.189,0.422,0.39,0.472,0.273,0.0965,0.851,0.701,0.505,0.201,0.137,0.339,0.4,0.375,0.156,0.0755
201T,1.03,0.953,0.812,0.679,0.371,0.446,0.33,0.338,0.341,0.221,0.931,0.81,0.924,0.875,0.486,0.662,0.567,0.597,0.386,0.211
LC-2-ad,0.685,0.702,0.6,0.26,0.176,0.636,0.623,0.411,0.306,0.265,0.648,0.876,0.952,0.699,0.186,0.932,0.867,0.526,0.34,0.345
NCI-H596,0.854,0.828,0.784,0.449,0.328,0.728,0.52,0.712,0.44,0.402,1.03,0.809,0.714,0.586,0.423,0.656,0.632,0.547,0.479,0.306

Cell Line,relative viability ([1]; first compound 0.005 µM),relative viability ([1]; first compound 0.01581 µM),relative viability ([1]; first compound 0.05 µM),relative viability ([1]; first compound 0.1581 µM),relative viability ([1]; first compound 0.5 µM),relative viability ([2]; first compound 0.005 µM),relative viability ([2]; first compound 0.01581 µM),relative viability ([2]; first compound 0.05 µM),relative viability ([2]; first compound 0.1581 µM),relative viability ([2]; first compound 0.5 µM),relative viability ([3]; first compound 0.005 µM),relative viability ([3]; first compound 0.01581 µM),relative viability ([3]; first compound 0.05 µM),relative viability ([3]; first compound 0.1581 µM),relative viability ([3]; first compound 0.5 µM),relative viability ([4]; first compound 0.005 µM),relative viability ([4]; first compound 0.01581 µM),relative viability ([4]; first compound 0.05 µM),relative viability ([4]; first compound 0.1581 µM),relative viability ([4]; first compound 0.5 µM)
NCI-H1437,1.02,1.03,1.09,0.859,0.377,0.322,0.207,0.261,0.222,0.148,0.785,0.784,0.809,0.752,0.218,1.01,0.863,0.837,0.798,0.365
NCI-H727,0.233,0.249,0.262,0.13,0.152,0.399,0.461,0.375,0.262,0.235,0.588,0.667,0.581,0.37,0.277,0.6,0.488,0.45,0.295,0.197
PC-3 [JPC-3],0.976,0.97,1.07,1.06,0.633,0.482,0.458,0.453,0.473,0.305,0.422,0.393,0.444,0.331,0.335,0.764,0.739,0.759,0.73,0.38
SW 1573,0.747,0.648,0.6,0.425,0.435,0.417,0.326,0.288,0.217,0.18,1.15,0.967,1.01,0.738,0.826,0.638,0.532,0.393,0.408,0.296
NCI-H2228,0.629,0.593,0.649,0.326,0.215,0.354,0.298,0.28,0.242,0.218,0.829,1.06,0.705,0.731,0.551,0.757,0.552,0.522,0.31,0.308
NCI-H1650,,,,,,0.401,0.302,0.319,0.217,0.178,0.552,0.5,0.441,0.381,0.325,0.571,0.355,0.318,0.219,0.171
NCI-H358,0.607,0.484,0.387,0.232,0.277,0.301,0.247,0.264,0.156,0.157,0.484,0.377,0.295,0.251,0.291,0.806,0.542,0.439,0.149,0.122
NCI-H1792,0.491,0.355,0.377,0.219,0.0845,0.198,0.394,0.415,0.135,0.0671,0.885,0.859,0.907,0.673,0.364,0.774,0.559,0.681,0.461,0.333
Calu-6,0.764,0.811,0.694,0.561,0.424,,,,,,0.924,0.776,0.848,0.642,0.59,,,,,
LCLC-103H,1.07,0.961,0.88,0.568,0.388,0.367,0.3,0.267,0.298,0.127,,,,,,0.437,0.38,0.403,0.38,0.146
NCI-H1623,,,,,,0.568,0.564,0.526,0.413,0.349,,,,,,0.423,0.393,0.396,0.462,0.339
NCI-H1299,0.978,0.996,0.93,0.286,0.146,,,,,,0.971,0.971,1.1,0.529,0.299,,,,,
ChaGo-K-1,,,,,,0.546,0.463,0.41,0.442,0.377,,,,,,0.556,0.501,0.52,0.459,0.423
NCI-H1703,0.139,0.29,0.247,0.0903,0.144,,,,,,0.638,0.326,0.429,0.185,0.16,,,,,
NCI-H522,,,,,,0.634,0.625,0.587,0.599,0.5,,,,,,0.72,0.69,0.643,0.596,0.632
IA-LM,0.787,0.732,0.65,0.712,0.475,,,,,,0.996,0.828,1.08,0.55,0.436,,,,,
SW 900,,,,,,0.489,0.568,0.53,0.466,0.294,,,,,,0.588,0.547,0.481,0.311,0.14
NCI-H441,0.566,0.523,0.491,0.311,0.176,0.921,0.912,0.862,0.547,0.401,,,,,,0.784,0.582,0.742,0.424,0.307
NCI-H2342,,,,,,0.626,0.482,0.556,0.356,0.304,,,,,,0.563,0.503,0.518,0.403,0.36
